The results in this text go back to PMC12326382, “Discovery of a novel RSK2 inhibitor for the treatment of metastatic pancreatic cancer” (Journal of Enzyme Inhibition and Medicinal Chemistry, 2025).

The target in the assay is T1, RSK2 (Homo sapiens, UniProt P51812).
T1 construct: gene RPS6KA3
Description: FRET kinase assay (Thermo Fisher LanthaScreen / Z'-LYTE). The assay is classed as biochemical.

Each structure is given as a SMILES string.

T1 sequence (P51812 whole entry): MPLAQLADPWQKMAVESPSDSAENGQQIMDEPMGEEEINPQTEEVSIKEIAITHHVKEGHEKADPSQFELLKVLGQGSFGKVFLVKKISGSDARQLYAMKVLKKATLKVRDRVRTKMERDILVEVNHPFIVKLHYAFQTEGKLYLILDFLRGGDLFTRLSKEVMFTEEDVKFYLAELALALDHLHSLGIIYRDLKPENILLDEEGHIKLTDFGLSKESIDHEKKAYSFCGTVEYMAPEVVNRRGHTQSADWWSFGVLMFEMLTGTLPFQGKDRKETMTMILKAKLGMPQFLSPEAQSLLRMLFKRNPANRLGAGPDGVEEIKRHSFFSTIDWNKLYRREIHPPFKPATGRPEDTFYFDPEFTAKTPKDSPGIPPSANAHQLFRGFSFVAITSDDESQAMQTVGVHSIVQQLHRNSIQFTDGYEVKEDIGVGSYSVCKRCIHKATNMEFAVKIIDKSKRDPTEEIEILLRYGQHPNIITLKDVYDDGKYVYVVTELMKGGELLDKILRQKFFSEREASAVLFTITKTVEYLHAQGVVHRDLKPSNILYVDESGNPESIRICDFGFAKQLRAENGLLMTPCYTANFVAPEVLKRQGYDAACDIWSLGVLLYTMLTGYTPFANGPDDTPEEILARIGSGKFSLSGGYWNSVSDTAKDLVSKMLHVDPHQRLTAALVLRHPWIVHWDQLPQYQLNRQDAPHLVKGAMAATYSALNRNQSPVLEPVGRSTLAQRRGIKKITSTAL

For `Cc1ccc2[nH]c(=O)c(-c3cnc(=O)[nH]n3)c(O)c2c1` [NSYSU-115], the IC50 (commonly the point on the concentration scale where inhibition reaches its midpoint) came to 45.5 nM.
